Test results as given in US20120088737A2, “NOVEL ACYL GUANIDINE DERIVATIVES” (AJINOMOTO CO., INC, priority 2009, published 2012).
pIC50: −log10 of the molar value.

How the values were obtained:
human NHE3 = biological target: T1, human NHE3 (Homo sapiens, UniProt P48764); test: Improved version of measurements of NHE3 inhibitory activities (OK26 ND cell lines); format: cell-based; conditions: OK26 ND cell lines (opNHE1 expression reduced by 90%), measurement time 8 minutes at 26° C.; read-out: hNHE3 IC50
T1 construct: expressed in transfected cells; host or cells: OK26 cells (opossum kidney OK cells); OK26 ND sublines with opNHE1 reduced by 90% for A3
T1 sequence (P48764 26-834): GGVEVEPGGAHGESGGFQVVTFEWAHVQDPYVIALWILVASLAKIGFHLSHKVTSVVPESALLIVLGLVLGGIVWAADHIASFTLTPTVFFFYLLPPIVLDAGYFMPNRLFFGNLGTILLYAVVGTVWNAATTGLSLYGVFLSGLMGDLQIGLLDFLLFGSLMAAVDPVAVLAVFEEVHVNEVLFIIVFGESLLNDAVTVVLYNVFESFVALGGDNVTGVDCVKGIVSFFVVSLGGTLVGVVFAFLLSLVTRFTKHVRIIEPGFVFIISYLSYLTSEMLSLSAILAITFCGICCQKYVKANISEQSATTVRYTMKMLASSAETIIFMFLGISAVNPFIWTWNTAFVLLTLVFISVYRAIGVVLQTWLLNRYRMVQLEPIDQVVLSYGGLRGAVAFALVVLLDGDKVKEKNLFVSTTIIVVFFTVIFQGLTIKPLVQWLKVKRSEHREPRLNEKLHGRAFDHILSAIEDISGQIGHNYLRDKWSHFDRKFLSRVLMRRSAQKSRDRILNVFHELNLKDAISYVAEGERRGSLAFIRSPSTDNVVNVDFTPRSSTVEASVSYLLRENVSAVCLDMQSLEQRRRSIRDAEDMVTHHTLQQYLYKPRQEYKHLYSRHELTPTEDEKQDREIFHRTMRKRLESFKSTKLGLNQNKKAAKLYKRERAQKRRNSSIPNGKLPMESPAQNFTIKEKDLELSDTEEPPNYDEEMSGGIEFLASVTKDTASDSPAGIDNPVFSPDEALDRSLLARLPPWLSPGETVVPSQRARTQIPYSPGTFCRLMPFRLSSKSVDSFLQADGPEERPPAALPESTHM
Method: Pharmacological Test Example 3: Improved Version of Measurements of NHE3 Inhibitory Activities
OK26 cells express endogeneous NHE1 (opNHE1). In order to evaluate NHE3 inhibitory activities more precisely, OK26 ND cell lines in which the expression level of opNHE1 is reduced by 90% were established. Measurements of NEE inhibitory activities were carried out by using the established cell lines in the same manner as described in Pharmacological Test Example 1 except that the measurement time was 8 minutes (at 26° C.) to calculate more precise NHE3 inhibitory activities.

NHE1 = biological target: T2, NHE1 (Homo sapiens, UniProt P19634); test: Measurements of NHE1 inhibitory activities (HLF cells, BCECF pH recovery); format: cell-based; conditions: HLF cells (human hepatoma cell line), measured after 10 minutes; read-out: hNHE1 IC50
T2 construct: HLF cells (Human hepatoma cell line) were used as cells for the test; endogenous in cells; host or cells: HLF cells (human hepatoma cell line)
T2 sequence (P19634 whole entry): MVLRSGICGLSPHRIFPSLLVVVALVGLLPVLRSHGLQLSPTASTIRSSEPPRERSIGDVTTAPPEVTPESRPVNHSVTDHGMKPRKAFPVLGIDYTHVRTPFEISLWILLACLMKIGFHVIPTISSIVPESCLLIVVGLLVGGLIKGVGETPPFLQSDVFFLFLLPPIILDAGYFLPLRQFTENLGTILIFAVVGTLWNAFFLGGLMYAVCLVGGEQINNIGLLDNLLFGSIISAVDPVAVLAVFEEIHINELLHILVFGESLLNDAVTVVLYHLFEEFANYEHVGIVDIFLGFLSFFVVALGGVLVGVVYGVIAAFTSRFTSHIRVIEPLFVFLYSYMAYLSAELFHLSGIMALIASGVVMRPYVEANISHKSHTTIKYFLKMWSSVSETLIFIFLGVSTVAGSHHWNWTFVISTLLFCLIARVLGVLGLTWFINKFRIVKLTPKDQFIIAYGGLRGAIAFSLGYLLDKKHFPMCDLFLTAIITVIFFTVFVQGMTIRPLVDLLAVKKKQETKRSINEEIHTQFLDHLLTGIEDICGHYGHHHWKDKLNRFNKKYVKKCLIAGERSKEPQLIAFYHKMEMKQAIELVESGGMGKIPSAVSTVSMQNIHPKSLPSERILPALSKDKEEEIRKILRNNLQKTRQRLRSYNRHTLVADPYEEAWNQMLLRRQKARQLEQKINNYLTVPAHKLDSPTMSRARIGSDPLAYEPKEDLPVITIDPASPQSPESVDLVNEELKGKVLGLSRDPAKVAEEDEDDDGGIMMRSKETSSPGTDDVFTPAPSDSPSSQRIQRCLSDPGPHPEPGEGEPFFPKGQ
Method: Pharmacological Test Example 1: Measurements of NHE1 Inhibitory Activities
HLF cells (Human hepatoma cell line) were used as cells for the test. After 1×10^4 cells/well were seeded to a 96-well plate and cultured for 3 days, they were cultured overnight under a serum-free medium. Then, the cells were incubated in a stain solution of Tetramethylammonium (TMA) Buffer (130 mM TMA-C1, 5 mM KCl, 2 mM CaCl2, 1 mM MgSO2, 25 mM glucose, 20 mM HEPES; pH 7.4) containing 40 mM NH4Cl and 1 μg/mL pH-sensitive fluorescent indicator BCECF-AM at 37° C. for 40 minutes and then BCECF was introduced into the cells. After the cells were washed once with TMA Buffer and incubated in TMA+40 mM NH4Cl solution at 37° C. for 15 minutes, the solution was removed and 20 μL/well of TMA Buffer and 10 μL/well of each test compound solution prepared with TMA Buffer were added to each well. The measurements were carried out by adding 200 μL/well of Na Buffer (130 mM, NaCl, 5 mM KCl, 2 mM CaCl2, 1 mM MgSO2, 1 mM NaH2PO4, 25 mM glucose, 20 mM HEPES; pH 7.4) or TMA Buffer (for base measurement), immediately placing it on FlexStation (Molecular Device) and then, after 10 minutes, measuring, it the two wavelengths of 505 nm (excitation wavelength)/530 nm (emission wavelength) (measurement value) and 440 nm (excitation wavelength)/530 nm (emission wavelength) (isosbestic point value). A NHE activity was calculated by dividing a measurement value by an isosbestic point value and a NHE1 inhibitory activity was calculated by the following equation. NHE1 inhibitory activity (%)=100×(1−(Measurement value [addition of each compound]−Base [addition of TMA Buffer])/(Control [addition of Na Buffer]−Base [addition of TMA Buffer]))

Structure (SMILES) | pIC50 (human NHE3) | pIC50 (NHE1)
COc1cc(-c2ccccc2/C=C(\C)C(=O)NC(=N)N)ccc1O [Example 23, N-[(E)-3-(4′-hydroxy-3′-methoxy-biphenyl-2-yl)-2-methyl-acryloyl]guanidine] | 6.21 | 5.59
C/C(=C\c1ccc(Oc2ccc(S(N)(=O)=O)cc2)cc1-c1ccc(O)cc1)C(=O)NC(=N)N [Example 65, 4-[(E)-6-(3-guanidino-2-methyl-3-oxo-propenyl)-4′-hydroxy-biphenyl-3-yloxy]-benzenesulfonamide] | 6.68 | 5.82
C/C(=C\c1ccc(C)cc1-c1ccc(O)c(F)c1)C(=O)NC(=N)N [Example 62, N-[(E)-3-(3′-fluoro-4′-hydroxy-5-methylbiphenyl-2-yl)-2-methyl-acryloyl]-guanidine] | 7.04 | 5.89
C/C(=C\c1cccc(C)c1-c1cccc(O)c1)C(=O)NC(=N)N [Example 68, N-[(E)-3-(3′-hydroxy-6-methyl-biphenyl-2-yl)-2-methyl-acryloyl]-guanidine] | 6.92 | 5.77
C/C(=C\c1ccc(-c2ccc(O)cc2C)cc1C)C(=O)NC(=N)N [Example 96, N-[(E)-3-(4′-hydroxy-3,2′-dimethyl-biphenyl-4-yl)-2-methyl-acryloyl]-guanidine] | 6.70 | 
COc1cc(-c2cc(C)ccc2/C=C(\C)C(=O)NC(=N)N)ccc1O [Example 66, N-[(E)-3-(4′-hydroxy-3′-methoxy-5-methyl-biphenyl-2-yl)-2-methyl-acryloyl]-guanidine] | 6.89 | 
COc1ccc(/C=C(\C)C(=O)NC(=N)N)c(-c2ccc(O)cc2)c1 [Example 73, N-[(E)-3-(4′-hydroxy-5-methoxy-biphenyl-2-yl)-2-methyl-acryloyl]-guanidine] | 6.92 | 

Next, values leading:

pIC50 (human NHE3) | pIC50 (NHE1) | Structure (SMILES)
6.02 |  | C/C(=C\c1c(Br)cccc1-c1ccc(O)cc1)C(=O)NC(=N)N [Example 70, N-[(E)-3-(3-bromo-4′-hydroxy-biphenyl-2-yl)-2-methyl-acryloyl]-guanidine]
7.06 | 5.96 | C/C(=C\c1ccc(-c2ccc(O)cc2)cc1-c1ccc(O)cc1)C(=O)NC(=N)N [Example 72, N-[(E)-3-(2,4-di(4-hydroxyphenyl)-phenyl)-2-methyl-acryloyl]-guanidine]
6.70 | 5.11 | C/C(=C\c1c(-c2ccc(O)cc2)cccc1-c1ccc(O)cc1)C(=O)NC(=N)N [Example 80, N-[(E)-3-(4,4″-dihydroxy-[1,1′;3′,1″]terphenyl-2′-yl)-2-methyl-acryloyl]-guanidine]
6.52 |  | C/C(=C\c1ccc(-c2ccc(O)cc2C)cc1)C(=O)NC(=N)N [Example 90, N-[(E)-3-(4′-hydroxy-2′-methyl-biphenyl-4-yl)-2-methyl-acryloyl]-guanidine]
6.40 |  | C/C(=C\c1ccccc1-c1ccc(CO)cc1)C(=O)NC(=N)N [Example 6, N-[(E)-3-(4′-hydroxymethyl-biphenyl-2-yl)-2-methyl-acryloyl]-guanidine]
6.33 |  | C/C(=C\c1ccc(-c2ccoc2)cc1)C(=O)NC(=N)N [Example 85, N-[(E)-3-(4-furan-3-yl-phenyl)-2-methyl-acryloyl]-guanidine]
6.82 |  | C/C(=C\c1ccc(-c2ccc(O)c(O)c2)cc1)C(=O)NC(=N)N [Example 92, N-[(E)-3-(3′,4′-dihydroxy-biphenyl-4-yl)-2-methyl-acryloyl]-guanidine]
6.72 |  | C/C(=C\c1ccc(-c2cc(O)ccc2F)cc1)C(=O)NC(=N)N [Example 91, N-[(E)-3-(2′-fluoro-5′-hydroxy-biphenyl-4-yl)-2-methyl-acryloyl]-guanidine]
6.60 |  | C/C(=C\c1ccc(-c2ccc(CO)cc2)cc1)C(=O)NC(=N)N [Example 93]
6.62 |  | C/C(=C\c1ccc(-c2ccc(O)cc2)cc1C)C(=O)NC(=N)N [Example 95, N-[(E)-3-(4′-hydroxy-3-methyl-biphenyl-4-yl)-2-methyl-acryloyl]-guanidine]
